# US11179455B2, “Use of a growth hormone secretagogue peptide as a vaccine adjuvant” (priority 2016, dated 2021)
# Bridge positions count the residues as written; N and C are the ends. Square brackets hold non-standard residues; d marks the D form. Ends that are not written are not given here.
# Key:
# [1] = test system: OVA; assay: Humoral immune response against OVA in mice, A233 co-administered; assay type: in vivo, BALB/c mice; settings: i.p.; 5 μg OVA + 10 μg A233/animal, Freund's adjuvant; vs OVA alone; day 22
# Description: To evaluate whether the peptide A233 exerts an adjuvant effect on OVA, 18 female BALB/c mice were used. Mice received 150 μL of immunogen in all groups, by i.p route, which was given to the animals on days 1 and 15 of the immunization schedule. Blood samples were taken at days 0 (preimmune serum), 8, 15, 22, 36, 43 and 50. The titers of total IgG present in the sera were evaluated. The animals were immunized with 5 μg OVA/animal and 10 μg A233/animal (Group 2), or with 5 μg of OVA/animal (Group 3). The control group was injected with PBS (Group 1). All immunogens were emulsified with Freund's adjuvant.
# [2] = test system: my32; assay: Anti-my32 IgM response to P0-my32 in tilapia; assay type: in vivo, Oreochromis niloticus; settings: i.p., day 28; for Anti-my32 IgM antibody titers: P0-my32 1 μg/g co-administrated with 20 μg peptide, Montanide ISA 50, vs P0-my32
# Excerpt: (§1) The chimeric protein P0-my32 was generated by cloning the complementary deoxyribonucleic acid (cDNA) encoding a 35 amino acid peptide of the L. salmonis P0 ribosomal protein fused to the N-terminal end of the cDNA encoding the my32 protein of the same ectoparasite (Carpio et al., 2013; Exp. Parasitol 135: 188-199), in a vector designed for the induced expression of genes of interest in the host bacterium E. coli. This protein was produced in the bacterium and purified, as a fusion protein with a tail of histidine, by metal chelate affinity chromatography.
# (§2) For the accomplishment of the immunization experiment, 6 study groups of male juveniles of Oreochromis niloticus, were formed, with 15 animals each. In all groups, the immunogen was administered by i.p. route, adjuvanted with Montaide ISA 50.
# (§3) The experimental groups received the following immunogens:
# (§4) Group 2: P0-my32 (1 μg/g of fish weight)
# (§5) Group 3: P0-my32 (1 μg/g of fish weight) co-administrated with 20 μg GHRP-6
# (§6) Group 4: P0-my32 (1 μg/g of fish weight) co-administrated with 20 μg A233
# (§7) Group 5: P0-my32 (1 μg/g of fish weight). The fish in this group were fed with feed formulated with 100 μg of GHRP-6 per kg of feed, twice daily, for one week before and one week after the administration of my32 in injections.
# (§8) During the course of the experiment, the fish in groups 1 to 4 were fed twice daily with a balanced unmedicated commercial formula, at the rate of 1% of their body weight. Immunizations were performed on days 0 and 14 of the schedule. Blood samples were taken at days 0, 21, 28 and 35 from the start of the experiment.
# [3] = test system: P0; assay: Anti-P0 IgM response to P0-my32 in tilapia; assay type: in vivo, Oreochromis niloticus; settings: i.p., day 28; for Anti-P0 IgM titer: P0-my32 1 μg/g co-administrated with 20 μg peptide, Montanide ISA 50, vs P0-my32
# Excerpt: as §1, §2, §3, §4, §5, §6, §7, §8
# [4] = test system: P0; assay: Anti-P0 IgM response to P0-TT in clarias; assay type: in vivo, Clarias gariepinus; settings: i.p.; P0-TT 1 μg/g + 20 μg peptide per animal, Montanide ISA 50; vs P0-TT without peptide; day 28
# Description: […]. For the experiment, 4 study groups of C. gariepinus were formed, with 12 animals in each one. These animals were immunized by i.p. route with 1 μg of the P0-TT protein per gram of animal weight (Group 2) or with the same dose of the chimeric protein P0-TT (1 μg/g of animal weight) co-administered with 20 μg of either GHRP-6 or A233 per animal (Groups 3 and 4, respectively), in a total volume of 120 μL. The control group (Group 1) received the same volume of PBS. The immunogens corresponding to all groups were emulsified with Montanide ISA 50 oily adjuvant. The immunization was performed under the same conditions, on days 0 and 14 of the administration schedule. Blood samples were taken at days 0, 21, 28 and 35 counted from the start of the experiment.
# [5] = test system: tilapia leukocytes; settings: in vitro; cited from earlier work
# [6] = test system: tilapia larvae; settings: immersion baths; cited from earlier work
# [7] = test system: activated macrophages; settings: mouse, in vivo; cited from earlier work
# [8] = test system: OVA; assay: Humoral immune response against OVA in mice, GHRP-6 co-administered; assay type: in vivo, BALB/c mice; settings: for Total IgG titers against OVA: GHRP-6 10 μg + OVA 5 μg/animal, Freund's adjuvant, vs OVA without GHRP-6
# Description: Thirty-six female BALB/c mice were used. Six study groups, with 6 animals each, were separated. Three groups were immunized by s.c route and the rest of them were treated by i.p route. In all groups, the immunogens were emulsified with Freund's adjuvant.
# Group 1: Placebo (phosphate buffered saline, abbreviated PBS). s.c route.
# Group 2: Placebo (PBS). i.p. route.
# Group 3: GHRP-6 at 10 μg/animal and OVA at 5 μg/animal. s.c. route.
# Group 4 GHRP-6 at 10 μg/animal and OVA at 5 μg/animal. i.p route.
# Group 5: OVA 5 μg/animal. s.c. route.
# Group 6: OVA 5 μg/animal. i.p. route.
# Mice received 150 μL of the immunogen in all groups, which was administered to the animals on days 1 and 15 of the immunization schedule. Blood extractions were performed on days 0 (pre-immune serum), 8, 15, 22, 36, 43 and 50. Total IgG titers, IgG1 and IgG2a were evaluated. Complete Freund's Adjuvant (CFA) was used in the first immunization and Incomplete Freund's Adjuvant (IFA) in the next one. The animals of the group immunized with GHRP-6 and OVA, by s.c route, had higher titers (with statistical significance: p<0.05) than those of the group receiving OVA without GHRP-6, by the same route, on days 22, 36, 43 and 50 of the experiment (FIG. 1A). Animals injected with the same immunogens, but by i.p. route, had the same behavior on days 36 and 43 of the experiment (FIG. 1 B).
# [9] = test system: C2 antigen, a Dengue virus capsid protein; assay: Humoral immune response against C2 antigen in mice, GHRP-6 co-administered; assay type: in vivo, BALB/c mice; settings: s.c.; 10 μg C2 + 10 μg GHRP-6, aluminum hydroxide; vs C2 without GHRP-6; day 28
# Description: The C2 antigen, a Dengue virus capsid protein, was obtained as a recombinant protein in Escherichia coli, with a molecular weight of 15 kDa. To evaluate the humoral and cellular immune response in mice vaccinated with C2, in presence or absence of GHRP-6, 24 female BALB/c mice, 6-weeks old, were selected. They were distributed into 3 groups. Each animal was given an immunogen, according to the experimental group:
# Group 2: 10 μg C2 co-administrated with 10 μg GHRP-6
# In all groups, the immunogens further comprised aluminum hydroxide, also known as alum. Immunizations were performed by s.c route, on days 0, 15 and 30 of the immunization schedule. Blood samples were taken at days 0 (pre-immune), 7, 16, 21, 28 and 35, to assess total IgG titers.
# [10] = test system: peptide P0 of R. sanguineus; assay: Humoral immune response against peptide P0 of R. sanguineus in mice, GHRP-6 co-administered; assay type: in vivo, BALB/c mice; settings: i.p.; 100 μg P0 + 200 μg GHRP-6, Freund's adjuvant; vs P0 without GHRP-6; day 36
# Description: The peptide P0 is a fragment corresponding to the region of less sequence identity between the ribosomal protein P0 of the tick R. sanguineus and its mammalian host. To evaluate the humoral immune response stimulated by the co-administration of GHRP-6 and P0, 24 female, 6-week old BALB/c mice were selected and divided into three groups of 8 mice. Each animal received 150 μL of immunogen, by i.p route, on days 1, 15 and 29 of the immunization schedule. In the first immunization FCA was employed, and FIA was used in the other two administrations.
# Group 3. 100 μg of P0 co-administrated with 200 μg of GHRP-6.
# Blood samples were taken on days 0 (pre-immune serum), 8, 16, 21, 28, 36, 43, 50 and 58, to determine the levels of total IgG.
# [11] = test system: Aeromonas hydrophila; assay: Agglutinating antibodies against Aeromonas hydrophila in common carp; assay type: in vivo, Cyprinus carpio; settings: i.p.; inactivated cells 1×10^8 CFU + 20 μg GHRP-6/fish + Montanide ISA 50; vs bacterium without GHRP-6; day 21
# Description: The experiment was carried out with carps (C. carpio) of 40±10 g. These animals were kept in 600 L aquaria, at a temperature of 28±2° C. Three experimental groups, of 10 carps each, were established and injected by i.p. route with the following immunogens:
# Group 1: PBS+Montanide ISA 50.
# Group 2: Inactivated A. hydrophila cells (1×10^8 Colony Forming Units, abbreviated CFU)+Montanide ISA 50.
# (§9) Group 3: Inactivated A. hydrophila cells (1×10^8 CFU)+20 μg GHRP-6/fish+Montanide ISA 50.
# Fish were injected on days 0 and 14, and blood samples were collected from the caudal vein on days 0 and 21. […] The preparation of A. hydrophila cells and the measurement of antibody titers were performed according to previous reports (Yin et al. ((1996) Fish & Shellfish Immunol. 6, 57-69).
# [12] = test system: Aeromonas hydrophila; assay: Controlled challenge with Aeromonas hydrophila in immunized common carp; assay type: in vivo, Cyprinus carpio; settings: challenge on day 21 by i.p injection of LD50 of the bacterium; mortality recorded for 7 days
# Description: The experiment was carried out with common carp (C. carpio) of 30±5 g. These animals were kept in 250 L aquaria, at a temperature of 30±2° C. Three experimental groups, of 20 carps each, were established and the animals were injected by i.p. route with:
# Group 1: PBS+Montanide ISA 50
# Group 2: Inactivated A. hydrophila cells (1×10^8 CFU)+Montanide ISA 50
# as §9
# Fish were injected on day 0 and 14. The challenge was performed on day 21, by i.p injection of the lethal dose 50 (LD50) of the bacterium, and the mortality in each group was recorded for 7 days. The relative survival rate (RSR) was calculated as: RSR(%)=(% mortality of controls−% mortality of treated animals)/(% mortality of controls)×100.
# [13] = test system: juvenile tilapia; settings: orally fed; cited from earlier work
# [14] = test system: rainbow trout leucocytes; settings: cited from earlier work
# [15] = test system: newly hatching chickens; settings: dose of 100 ng in ovo, day 10 of incubation; cited from earlier work
# [16] = serum of day 36, s.c and i.p routes, OVA with vs without GHRP-6
# [17] = Group 3 (with GHRP-6) vs Group 2
substance,measurement,setting,value
"A233: growth hormone secretagogue peptide, structural analogue of GHRP-6 (GKFDLSPEHQ; lactam 2-4 (inferred))",Anti-OVA antibody titers (total IgG),[1],significant increase
same,Anti-my32 IgM antibody titers,[2],increase
same,Anti-P0 IgM titer,[3],increase
same,Anti-P0 IgM antibody titers,[4],same effect
same,"Production of indicators of phagocytic activity, such as superoxide anion",[5],stimulated
same,"Antioxidant defense, enzyme superoxide dismutase",[6],stimulates
same,Antiprotease activity,[6],stimulates
same,Lectin titers,[6],stimulates
GHRP-2,Arthritis,[7],attenuated
same,Release of interleukin 6 (IL-6) from activated macrophages,[7],significantly inhibited
same,Release of nitric oxide from activated macrophages,[7],significantly inhibited
"His-D-Trp-Ala-Trp-D-Phe-Lys-NH2 (H[dW]AW[dF]K-NH2) [GHRP-6, synthetic growth hormone releasing peptide, hexamer, used as molecular adjuvant]",Total IgG titers against OVA,"[8]; i.p. route, days 36 and 43",same behavior
same,IgG1/IgG2a,"[8]; intraperitoneal route, mean of the six animals in the group",significantly superior
same,Total IgG titers against OVA,"[8]; s.c. route, days 22, 36, 43 and 50, p<0.05",higher titers
same,IgG1 titers,[8]; [16],higher
same,IgG2a titers,[8]; [16],No significant differences
same,Anti-C2 IgG titer,[9],significant increase
same,Anti-P0 IgG titers,[10],significant increase
same,"Number of anti-my32 responder animals, IgM titers greater than 1:1000",[2]; [17],higher
same,Anti-my32 IgM antibody titers,[2],increase
same,"Number of anti-P0 responder animals, IgM titers greater than 1:1000",[3]; [17],higher
same,Anti-P0 IgM titer,[3],same effect
same,Anti-P0 IgM antibody titers,[4],increase
same,Titers of agglutinating antibodies against A. hydrophila,[11],significantly higher
same,Relative survival rate (RSR),[12],95%
same,Lectin titers,[13],increase
same,Number of intraepithelial lymphocytes of the gastric mucosa,[13],increase
[D-Lys3]-GHRP-6,Production of reactive oxygen species (O^2′—) after prior incubation with antagonist,[14]; prior incubation before ghrelin,decreased
"ghrelin: endogenous ligand for the growth hormone secretagogues receptor (GHS-R) (GSSFLSPEHQRVQQRKESKKPPAKLQPR; ends and bridges not checked; UniProt Q9UBU3 24-51, looked up)",Levels of GH messenger ribonucleic acid,[14]; in vitro,increases
same,Production of superoxide anion,[14]; in vitro,increases
same,Superoxide dismutase,[14]; in vitro,increases
same,Arthritis,[7],attenuated
same,Release of interleukin 6 (IL-6) from activated macrophages,[7],significantly inhibited
same,Release of nitric oxide from activated macrophages,[7],significantly inhibited
same,"Count of heterophil, basophils and eosinophils, and heterophil/lymphocyte ratio",[15],increase
same,Lymphocytes,[15],decreased
